The values that follow come from patent publication US20250041429A1, “COMPOUND HAVING BTK PROTEIN DEGRADATION ACTIVITY, AND MEDICAL USES THEREOF” (UBIX THERAPEUTICS, INC., priority 2021, published 2025).

The assay addresses T1, BTK protein (Homo sapiens, UniProt Q06187).
T1 construct: endogenous in cells; host or cells: TMD-8 cells
In words: Measurement of BTK protein degradation ability in TMD-8 cells (Western blotting). Type of assay: cell-based. The following applies: harvested after 24 hours; for BTK degradation (%) 1 nM: compound 1 nM; for BTK degradation (%) 10 nM: compound 10 nM; for BTK degradation (%) 100 nM: compound 100 nM. As for the experimental part: TMD-8, RAMOS, or 293T BTK MUT (C481S) cells were treated with the synthesized compounds, and then the amount of BTK protein present in the cells was measured using Western blotting detection. The protocol for the experiment conducted using TMD-8 cells was as follows:
[Culture] TMD-8 cells were resuspended in RPMI1640 MEDIUM (Hyclone, SH30027.01), 10% FBS (Hyclone, SV30207.02), and 1% Penicillin-streptomycin (Welgene, LS 202-02) media, and 1 mL of this suspension was seeded in a 12-well plate at a cell concentration of 1×10^6/mL.
[Compound treatment] The 12-well plate was treated as follows: The 10 mM stock was serially diluted 1/10 with DMSO (3 μL+27 μL DMSO), and cells were treated with compounds at final concentrations of 0.1, 1, 10 μM or 0.0001, 0.001, 0.01, 0.1 μM, and harvested after 24 hours. In the negative control group, DMSO diluted 1/10 was added to the media. (3 μL DMSO+27 μL media)
[Harvest] Each well was pipetted with a 1 mL pipette, collected in a 1.5 mL microtube, and centrifuged (500 g, 5 min, 4° C.). After removing the supernatant, it was washed with PBS and centrifuged again (500 g, 5 min, 4° C.). The supernatant was removed and the pellet was collected.
[Cell lysis and Sample preparation] lysis buffer was prepared as follows: RIPA buffer (Biosesang, RC2038-050-00), 0.5 mM PMSF (SIGMA, P7626) and 1× Protease/Phosphatase Inhibitor (Cell signaling, 5872S) were added at 60-70 μL per well and left on ice for 30 minutes. (Vortexing at 0 and 30 minutes, respectively), followed by sonication (10 seconds pulse, 30 seconds rest, 5 cycles, 70% amplification) and centrifuge (15000 g, 15 min, 4° C.). Only the supernatant was collected and transferred to a new microtube. The samples were diluted by ½ with RIPA buffer in a 96-well plate. 200 μL of the mixture A:B=50:1 of the BCA Protein Assay Kit (iNtRON, 21071) was added each, stayed at 37° C. for 30 minutes, and cooled for 10 minutes. Afterwards, absorbance was measured at 562 nm using BioTek's SYNERGY H1 microplate reader. After making a sample by quantifying the protein using the measured value, it was boiled at 70° C. for 10 minutes. The sample buffer used at this time was a mixture of NuPAGE or Bolt 4× sample buffer (Invitrogen) and each 10× sample reducing agent according to the gel to be used. RIPA buffer was used for protein dilution.
[Western blotting detection method] The same amount of sample was loaded on NuPAGE or Bolt Bis-tris 4-12% gradient gel and run (200 V, 35 minutes). It was transferred to a […] NC membrane using Trans-blot Turbo (BIO-RAD) (1.3 A constant, 25 V limit, 15 minutes). For blocking, skim milk or Intercept Blocking Buffer (LI-COR, 927-60001): 0.1% TBST=1:1 was used at room temperature for 1 hour. Anti BTK Rabbit (1:1,000 in 5% skim milk/0.2% TBST, size: 77 kDa, Cell signaling Technology) was reacted at 4° C. for 16 hours or at room temperature for 2 hours. Anti GAPDH Rabbit (1:10,000 in 5% BSA/0.2% TBST, size: 36 kDa, GENETEX) and Anti β-actin mouse (1:10,000 in 5% BSA/0.2% TBST, RT, size: 43 kDa, GENETEX) were reacted at room temperature for 1 hour or 3 hours. The samples were washed 3 times with 0.5% TBST for 5 minutes each. Secondary antibodies, Anti-Rabbit IgG (1:5,000 in 5% Skim milk/TBST, CST), IRDye® 800CW Goat anti-Rabbit IgG Secondary Antibody (1:10,000 in 5% skim/TBST, RT 45 min), IRDye® 680RD Goat anti-Mouse IgG Secondary Antibody (1:10,000 in 5% skim/TBST, RT 45 min) were added depending on each sample and reacted for 45 minutes on a rocker at room temperature. The samples were washed 5 times with 0.5% TBST for 5 minutes each and detected with LI-COR's Odyssey. At this time, BTK was detected using SuperSignal West Pico PLUS Chemiluminescent Substrate or SuperSignal West femto Maximum Sensitivity Substrate, and house-keeping genes were detected as is.

Structures are written as SMILES.

T1 sequence (Q06187 whole entry): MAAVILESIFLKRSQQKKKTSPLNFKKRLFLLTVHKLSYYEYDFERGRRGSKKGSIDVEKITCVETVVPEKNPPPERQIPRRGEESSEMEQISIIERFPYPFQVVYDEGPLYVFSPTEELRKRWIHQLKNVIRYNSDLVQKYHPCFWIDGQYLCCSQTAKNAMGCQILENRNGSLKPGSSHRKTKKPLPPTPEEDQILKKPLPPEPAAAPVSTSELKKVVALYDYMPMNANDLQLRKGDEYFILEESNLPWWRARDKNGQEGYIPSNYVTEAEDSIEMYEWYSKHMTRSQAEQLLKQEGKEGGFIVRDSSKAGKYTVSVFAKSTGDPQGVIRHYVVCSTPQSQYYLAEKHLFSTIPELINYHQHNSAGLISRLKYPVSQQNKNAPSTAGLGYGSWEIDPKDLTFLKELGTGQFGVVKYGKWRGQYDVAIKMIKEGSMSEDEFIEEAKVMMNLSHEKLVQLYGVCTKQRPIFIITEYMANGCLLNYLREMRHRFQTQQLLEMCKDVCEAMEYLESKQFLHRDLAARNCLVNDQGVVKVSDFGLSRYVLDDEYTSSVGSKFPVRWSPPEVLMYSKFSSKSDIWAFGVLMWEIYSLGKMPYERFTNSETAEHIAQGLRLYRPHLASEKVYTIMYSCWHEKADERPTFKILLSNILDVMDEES

Take `Cc1cc(-c2ccnc(Nc3ccc(N4CCN(CC5CN(c6ccc7c(c6)C(=O)N(C6CCC(=O)NC6=O)C7=O)C5)CC4)nc3)n2)ccc1CNC(=O)N1CC(OC(C)C)C1` (stereo not drawn) [Example 18, N-(4-(2-((6-(4-((1-(2-(2,6-dioxopiperidin-3-yl)-1,3-dioxoisoindolin-5-yl)azetidin-3-yl)methyl)piperazin-1-yl)pyridin-3-yl)amino)pyrimidin-4-yl)-2-methylbenzyl)-3-isopropoxyazetidine-1-carboxamide]: the “BTK degradation (%) 1 nM” value worked out at 46%, the “BTK degradation (%) 10 nM” value worked out at 92% and the “BTK degradation (%) 100 nM” value stood at 98.5%.

For the molecule `Cc1cc(-c2ccnc(Nc3ccc(C4CCN(CC5CCN(c6ccc7c(c6)C(=O)N(C6CCC(=O)NC6=O)C7=O)CC5)CC4)nc3)n2)ccc1CNC(=O)N1CC(OC(C)C)C1` (stereo not drawn) [Example 19, N-(4-(2-((6-(1-((1-(2-(2,6-dioxopiperidin-3-yl)-1,3-dioxoisoindolin-5-yl)piperidin-4-yl)methyl)piperidin-4-yl)pyridin-3-yl)amino)pyrimidin-4-yl)-2-methylbenzyl)-3-isopropoxyazetidine-1-carboxamide], the “BTK degradation (%) 1 nM” value is given as 48%, the “BTK degradation (%) 10 nM” value is on record as 93% and the “BTK degradation (%) 100 nM” value turned out to be 99%.

Consider `Cc1cc(-c2ccnc(Nc3ccc(C4CCN(CC5CN(c6ccc7c(c6)C(=O)N(C6CCC(=O)NC6=O)C7=O)C5)CC4)nc3)n2)ccc1CNC(=O)N1CC(OC(C)C)C1` (stereo not drawn) [Example 20, N-(4-(2-((6-(1-((1-(2-(2,6-dioxopiperidin-3-yl)-1,3-dioxoisoindolin-5-yl)azetidin-3-yl)methyl)piperidin-4-yl)pyridin-3-yl)amino)pyrimidin-4-yl)-2-methylbenzyl)-3-isopropoxyazetidine-1-carboxamide], for which the “BTK degradation (%) 1 nM” value stood at 49%, the “BTK degradation (%) 10 nM” value is recorded as 92% and the “BTK degradation (%) 100 nM” value was 98.5%.

On to `Cc1cc(-c2ccnc(Nc3cnn(C4CCN(CC5CCN(c6ccc7c(c6)C(=O)N(C6CCC(=O)NC6=O)C7=O)CC5)CC4)c3)n2)ccc1CNC(=O)N1CC(OC(C)C)C1` (stereo not drawn) [Example 21, N-(4-(2-((1-(1-((1-(2-(2,6-dioxopiperidin-3-yl)-1,3-dioxoisoindolin-5-yl)piperidin-4-yl)methyl)piperidin-4-yl)-1H-pyrazol-4-yl)amino)pyrimidin-4-yl)-2-methylbenzyl)-3-isopropoxyazetidine-1-carboxamide], for which the “BTK degradation (%) 1 nM” value was found to be 70%, the “BTK degradation (%) 10 nM” value turned out to be 96.5% and the “BTK degradation (%) 100 nM” value came out at 99%.

Consider `Cc1cc(-c2ccnc(Nc3cnn(C4CCN(CC5CN(c6ccc7c(c6)C(=O)N(C6CCC(=O)NC6=O)C7=O)C5)CC4)c3)n2)ccc1CNC(=O)N1CC(OC(C)C)C1` (stereo not drawn) [Example 22, N-(4-(2-((1-(1-((1-(2-(2,6-dioxopiperidin-3-yl)-1,3-dioxoisoindolin-5-yl)azetidin-3-yl)methyl)piperidin-4-yl)-1H-pyrazol-4-yl)amino)pyrimidin-4-yl)-2-methylbenzyl)-3-isopropoxyazetidine-1-carboxamide], for which the “BTK degradation (%) 1 nM” value worked out at 75%, the “BTK degradation (%) 10 nM” value amounted to 97% and the “BTK degradation (%) 100 nM” value was 99%.

Take `Cc1c(NC(=O)N2CC(OC(C)C)C2)cc(F)cc1-c1ccnc(Nc2ccc(N3CCN(CC4CCN(c5ccc6c(c5)C(=O)N(C5CCC(=O)NC5=O)C6=O)CC4)CC3)cc2)n1` (stereo not drawn) [Example 23, N-(3-(2-((4-(4-((1-(2-(2,6-dioxopiperidin-3-yl)-1,3-dioxoisoindolin-5-yl)piperidin-4-yl)methyl)piperazin-1-yl)phenyl)amino)pyrimidin-4-yl)-5-fluoro-2-methylphenyl)-3-isopropoxyazetidine-1-carboxamide]: the “BTK degradation (%) 10 nM” value is listed as 72% and the “BTK degradation (%) 100 nM” value is listed as 91.5%.

`Cc1c(NC(=O)c2cnn(C(C)(C)C)c2)cc(F)cc1-c1ccnc(Nc2ccc(N3CCN(CC4CCN(c5ccc6c(c5)C(=O)N(C5CCC(=O)NC5=O)C6=O)CC4)CC3)cc2)n1` (stereo not drawn) [Example 24, 1-(tert-butyl)-N-(3-(2-((4-(4-((1-(2-(2,6-dioxopiperidin-3-yl)-1,3-dioxoisoindolin-5-yl)piperidin-4-yl)methyl)piperazin-1-yl)phenyl)amino)pyrimidin-4-yl)-5-fluoro-2-methylphenyl)-1H-pyrazole-4-carboxamide]: the “BTK degradation (%) 10 nM” value came out at 6.5% and the “BTK degradation (%) 100 nM” value came out at 20%.

As to `Cc1c(NC(=O)c2cn(C(C)(C)C)nn2)cc(F)cc1-c1ccnc(Nc2ccc(N3CCN(CC4CCN(c5ccc6c(c5)C(=O)N(C5CCC(=O)NC5=O)C6=O)CC4)CC3)cc2)n1` (stereo not drawn) [Example 25, 1-(tert-butyl)-N-(3-(2-((4-(4-((1-(2-(2,6-dioxopiperidin-3-yl)-1,3-dioxoisoindolin-5-yl)piperidin-4-yl)methyl)piperazin-1-yl)phenyl)amino)pyrimidin-4-yl)-5-fluoro-2-methylphenyl)-1H-1,2,3-triazole-4-carboxamide], the “BTK degradation (%) 10 nM” value is 8.5% and the “BTK degradation (%) 100 nM” value was found to be 24%.

Take `Cc1c(NC(=O)N2CC(OC(C)C)C2)cc(F)cc1-c1ccnc(Nc2ccc(N3CCN(CC4CCN(c5ccc6c(n5)CN(C5CCC(=O)NC5=O)C6=O)CC4)CC3)cc2)n1` (stereo not drawn) [Example 26, N-(3-(2-((4-(4-((1-(6-(2,6-dioxopiperidin-3-yl)-5-oxo-6,7-dihydro-5H-pyrrolo[3,4-b]pyridin-2-yl)piperidin-4-yl)methyl)piperazin-1-yl)phenyl)amino)pyrimidin-4-yl)-5-fluoro-2-methylphenyl)-3-isopropoxyazetidine-1-carboxamide]: the “BTK degradation (%) 1 nM” value is listed as 15.5%, the “BTK degradation (%) 10 nM” value is on record as 76% and the “BTK degradation (%) 100 nM” value was found to be 93%.

On to `Cc1c(NC(=O)N2CC(OC(C)C)C2)cc(F)cc1-c1ccnc(Nc2ccc(N3CCN(CC4CN(c5ccc6c(c5)C(=O)N(C5CCC(=O)NC5=O)C6=O)C4)CC3)cc2)n1` (stereo not drawn) [Example 27, N-(3-(2-((4-(4-((1-(2-(2,6-dioxopiperidin-3-yl)-1,3-dioxoisoindolin-5-yl)azetidin-3-yl)methyl)piperazin-1-yl)phenyl)amino)pyrimidin-4-yl)-5-fluoro-2-methylphenyl)-3-isopropoxyazetidine-1-carboxamide], for which the “BTK degradation (%) 1 nM” value stood at 26.5%, the “BTK degradation (%) 10 nM” value worked out at 71.5% and the “BTK degradation (%) 100 nM” value stood at 94.5%.

As to `Cc1cc(CNC(=O)N2CC(OC(C)C)C2)cc(-c2ccnc(Nc3ccc(N4CCN(CC5CCN(c6ccc7c(c6)C(=O)N(C6CCC(=O)NC6=O)C7=O)CC5)CC4)cc3)n2)c1` (stereo not drawn) [Example 28, N-(3-(2-((4-(4-((1-(2-(2,6-dioxopiperidin-3-yl)-1,3-dioxoisoindolin-5-yl)piperidin-4-yl)methyl)piperazin-1-yl)phenyl)amino)pyrimidin-4-yl)-5-methylbenzyl)-3-isopropoxyazetidine-1-carboxamide], the “BTK degradation (%) 1 nM” value is recorded as 18%, the “BTK degradation (%) 10 nM” value turned out to be 12% and the “BTK degradation (%) 100 nM” value is given as 4.5%.
